# Columns and labels:
# Saccharomyces cerevisiae [1] = experiment: DNA damaging activity against yeast 1140 mutant assessed as drug level required to produce 12 mm zone of inhibition; type: functional
# Saccharomyces cerevisiae [2] = experiment: DNA damaging activity against yeast 1138 mutant assessed as drug level required to produce 12 mm zone of inhibition; type: functional
# A2780 = experiment: Cytotoxicity against human A2780 cells; type: functional, cell-based
# Saccharomyces cerevisiae [3] = experiment: DNA damaging activity against yeast 1353 mutant assessed as drug level required to produce 12 mm zone of inhibition; type: functional
# Saccharomyces cerevisiae [4] = experiment: DNA damaging activity against yeast Sc7 mutant assessed as drug level required to produce 12 mm zone of inhibition; type: functional
compound,measurement,setting,value
C/C=C(/C)C(=O)O[C@H]1[C@H](OC(=O)C=C(C)C)[C@@]2(CO)[C@H](CC1(C)C)C1=CC[C@@H]3[C@@]4(C)CC[C@H](O[C@@H]5O[C@H](C(=O)O)[C@@H](O[C@H]6O[C@H](CO)[C@@H](O)[C@@H]6O)[C@H](O[C@H]6OC[C@@H](O)[C@@H](O)[C@@H]6O)[C@H]5O[C@@H]5O[C@H](CO)[C@@H](O)[C@H](O)[C@H]5O)C(C)(C)[C@@H]4CC[C@@]3(C)[C@]1(C)[C@@H](O)[C@H]2O [PITTOVIRIDOSIDE],IC12,Saccharomyces cerevisiae [1],80 µg/mL
same,IC12,Saccharomyces cerevisiae [2],85 µg/mL
same,IC50,A2780,10.1 µg/mL
same,IC12,Saccharomyces cerevisiae [3],140 µg/mL
same,IC12,Saccharomyces cerevisiae [4],100 µg/mL
